From PubChem BioAssay (NCI)
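Following 48 hours of exposure in 96-well plates, responses at five concentrations were used to interpolate endpoints linearly. At the GI50, growth is halved. Definition used: TGI = concentration required for complete inhibition of growth.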

Columns and labels:
Assay in all cases: inhibition of tumour cell growth, NCI panel, 48 h
HCT-116 colon = test system: HCT-116 colon
HOP-92 NSCLC = test system: HOP-92 NSCLC
K-562 leukemia = test system: K-562 leukemia
MDA-MB-435 = test system: MDA-MB-435
OVCAR-3 ovarian = test system: OVCAR-3 ovarian
OVCAR-4 ovarian = test system: OVCAR-4 ovarian
RXF 393 renal = test system: RXF 393 renal
T-47D breast = test system: T-47D breast

SMILES	TGI (HCT-116 colon)	TGI (HOP-92 NSCLC)	TGI (K-562 leukemia)	TGI (MDA-MB-435)	TGI (OVCAR-3 ovarian)	TGI (OVCAR-4 ovarian)	TGI (RXF 393 renal)	TGI (T-47D breast)	GI50 (HCT-116 colon)	GI50 (HOP-92 NSCLC)	GI50 (K-562 leukemia)	GI50 (MDA-MB-435)	GI50 (OVCAR-3 ovarian)	GI50 (OVCAR-4 ovarian)	GI50 (RXF 393 renal)	GI50 (T-47D breast)
c1ccc2sc(SCCSc3nc4ccccc4s3)nc2c1	> 100 µM	> 100 µM	> 100 µM	> 100 µM	> 100 µM	> 100 µM	> 100 µM	> 100 µM								
Cc1cc(S(=O)(=O)Nc2nc3ccccc3o2)c(SCc2ccccc2)cc1Cl	33.4 µM	20.9 µM	> 100 µM	42.7 µM	42.1 µM	67.9 µM	61.5 µM		13.8 µM	4.65 µM	31.8 µM	19.8 µM	16.7 µM	25.4 µM	29.5 µM	
COc1ccc(C(c2cc(OC)c(OC)c(OC)c2)n2ccnc2)cc1O (stereo not drawn)	> 100 µM	> 100 µM	> 100 µM		0.857 µM	> 100 µM			0.249 µM	28.6 µM	0.225 µM		0.264 µM	3.44 µM		
NNC(=S)N/N=C(\C(=O)Nc1cccc(O)c1)C1C(=O)NC(=S)NC1=O	> 100 µM	> 100 µM	> 100 µM	> 100 µM	> 100 µM	> 100 µM	> 100 µM	> 100 µM								
COC(=O)c1n[nH]c(C)c1N=NN(C)CCC#N	46.3 µM	35 µM	60 µM	> 100 µM	42.2 µM	30.7 µM	29.7 µM	93 µM								
CC1=CC(=O)C2=C(C)CCC3C(C)C(=O)OC3C12 (stereo not drawn)	> 100 µM	> 100 µM		> 100 µM	> 100 µM	> 100 µM	> 100 µM	> 100 µM								
CCSCC1CC(O)(c2ccccc2)CC(c2ccc(F)cc2)O1 (stereo not drawn)	3.02 µM	2.72 µM	3.93 µM	4.36 µM	3.4 µM	11.5 µM	3.47 µM	8.24 µM	1.66 µM	1.25 µM	1.83 µM	2.04 µM	1.83 µM	2.69 µM	1.68 µM	2.23 µM
C[C@@H](NC1CCCC[C@H]1O)c1ccccc1 (stereo partly drawn)	> 100 µM	> 100 µM	> 100 µM		> 100 µM	> 100 µM	> 100 µM									
CCCCCCCCCCCCOC1C(CNC(=O)C2OC3OC(C)(C)OC3C2NC(=O)Nc2ccc(CC(=O)OC)cc2)OC2OC(C)(C)OC21 (stereo not drawn)	> 100 µM	> 100 µM		> 100 µM	> 100 µM	> 100 µM		> 100 µM	12.5 µM	> 100 µM		> 100 µM	> 100 µM	> 100 µM		> 100 µM
Fc1cccc(COc2ccc(Nc3ncnc4sc(-c5cccs5)cc34)cc2Cl)c1	> 23.8 µM	10.2 µM	> 25 µM	> 19.1 µM	6.24 µM	8.66 µM	12 µM	9.04 µM	7.59 µM	3.3 µM	> 25 µM	3.61 µM	0.77 µM	2.06 µM	4.37 µM	2.71 µM
COc1ccc(C2CC(c3cccc(Nc4ccnc5cc(Cl)ccc45)c3)=NN2C=O)cc1 (stereo not drawn)	2.56 µM	> 100 µM	> 100 µM	0.809 µM	3.59 µM	> 100 µM	7.39 µM	> 42.8 µM	0.398 µM	> 100 µM	0.33 µM	0.142 µM	0.383 µM	0.94 µM	0.883 µM	0.604 µM
Cc1cc(O)c(=O)cc2c1C[C@H]1CC(C)(C)/C=C/C[C@]3(C)Oc4cc(=O)c(O)cc(C)c4C[C@H]3C[C@H](O)[C@@]1(C)O2	> 100 µM				19.6 µM	> 100 µM		0.0949 µM	< 0.01 µM			< 0.017 µM	< 0.01 µM	0.0172 µM		< 0.01 µM
O=c1c2c(=NCCN3CCCC3)cc3c(=O)n(CCCN4CCOCC4)c(=O)c4c(-c5ccc(CN6CCCC6)cc5)cc(c(O)n1CCCN1CCOCC1)c2c4-3	0.209 µM	0.0735 µM	> 100 µM	0.147 µM	0.109 µM	0.23 µM	0.0779 µM	0.897 µM	0.0101 µM	0.0178 µM	0.0195 µM	0.0395 µM	0.0244 µM	0.0491 µM	0.0204 µM	0.1 µM
Cc1nc([P+](c2ccccc2)(c2ccccc2)c2ccccc2)c(Sc2sc(-c3ccccc3)nc2[P+](c2ccccc2)(c2ccccc2)c2ccccc2)o1	2.94 µM	3.73 µM	5.9 µM	3.46 µM	3.29 µM	5.82 µM	5.26 µM	8.81 µM	0.896 µM	0.759 µM	0.368 µM	1.19 µM	0.76 µM	0.952 µM	1.78 µM	0.327 µM
COc1ccc(C2=N[C@@H](Cc3ccccc3)C(=O)Nc3ccsc32)cc1	17.7 µM	16.7 µM	27 µM	4 µM	9.88 µM	83 µM	9.6 µM	48.4 µM	5.38 µM	2.32 µM	3.75 µM	1.52 µM	3.56 µM	11.2 µM	2.75 µM	5.64 µM
CCOC(=O)c1cc(C(=O)c2cc(OC)c(OC)c(OC)c2)n2ncccc12	> 100 µM	> 100 µM	> 100 µM	0.117 µM	1.84 µM	> 100 µM	1.84 µM		0.276 µM	48.5 µM	0.124 µM	0.0314 µM	0.145 µM	0.805 µM	0.215 µM	
COc1cc(C2Cc3ncccc3-c3[nH]c(=O)c4cccnc4c32)cc(OC)c1OC (stereo not drawn)	> 100 µM		> 100 µM	0.428 µM	5.49 µM	> 100 µM	2.01 µM		0.456 µM		0.313 µM	0.0554 µM	0.323 µM	1.12 µM	0.289 µM	
O=C(Cc1ccc(/C=C/C(=O)c2ncc[nH]2)cc1)Nc1ccc(F)cc1	6.92 µM	30.5 µM	> 33.3 µM	20.1 µM	6.01 µM	> 33.3 µM	8.92 µM	24.6 µM	1.89 µM	9.11 µM	1.3 µM	4.07 µM	1.7 µM	9.14 µM	3.44 µM	3.33 µM
Cc1nc2ccc(Nc3nc(Cl)nc(N4CCOCC4)n3)cc2n1Cc1ccccc1	89 µM	6.36 µM	> 100 µM	> 100 µM	36 µM		3.58 µM	> 100 µM	5.16 µM	2.07 µM	2.82 µM	8.23 µM	4.19 µM		1.85 µM	3.27 µM
O=C1CSCc2sccc21	> 100 µM		> 100 µM		> 100 µM	> 100 µM	> 100 µM	> 100 µM								
Fc1cc2[nH]ncc2c2c3c(c(-c4cn[nH]c4C(F)(F)F)nc12)CCCC3	> 100 µM		> 100 µM	12.1 µM	> 100 µM		2.39 µM	7.39 µM	0.923 µM		2.07 µM	2.39 µM	2.75 µM		1.08 µM	1.97 µM
O=C(Nc1ccc2[nH]nc(-c3ccncc3)c2c1)[C@@H]1CCN(CC(=O)N2CCN(c3ccc(-c4ncccn4)cc3)CC2)C1	> 44.6 µM	1.81 µM	> 73.2 µM		> 100 µM	> 100 µM	> 100 µM	> 100 µM	0.0783 µM	0.105 µM	1.96 µM		> 100 µM	5.91 µM	2.84 µM	2.74 µM
O=C(Oc1cccc2cccnc12)c1cc2c(cc1Cl)SC(N(c1ccc(F)cc1)S(=O)(=O)c1ccc(Br)s1)=NS2(=O)=O	55 µM	48.5 µM	> 100 µM	> 100 µM	66.4 µM	46.8 µM		38.9 µM	19.3 µM	22.5 µM	29.1 µM	26 µM	8.16 µM	17.8 µM		4.93 µM
O=C(CC(Cl)=C(Cl)Cl)Nc1ccccc1	> 100 µM	> 100 µM				> 100 µM	> 100 µM	> 100 µM	> 100 µM					> 100 µM	> 100 µM	> 100 µM
CC(C)(Br)C(=O)N1CCN(C(c2ccccc2)c2ccccc2)CC1	> 100 µM	> 100 µM	> 100 µM	> 100 µM	36.8 µM	> 100 µM	81.2 µM									
CCOC(=O)c1ccc(NC(=O)Nc2nncs2)cc1	11.8 µM	0.947 µM	> 46.6 µM		0.415 µM	21.5 µM	0.489 µM	34.4 µM	0.109 µM		0.0754 µM		0.0963 µM	0.916 µM	0.14 µM	0.584 µM
CCOC(=O)/C(=C/N1CCN(C(=O)c2ccco2)C1=S)C(=O)c1ccccc1	23.7 µM	> 50 µM	> 50 µM	> 50 µM	> 50 µM	> 50 µM		> 50 µM	8.93 µM	23 µM	15.7 µM	14.4 µM	20.2 µM	31 µM		4.08 µM
